Laboratory results: US12441732B2, “Potassium salt crystal form B of phosphodiesterase type 5 inhibitor, and preparation method and use therefor” (Guangzhou Huazhen Pharmaceutical Co., Ltd, priority 2019, dated 2025)

Columns and labels:
[1] = test system: UUO model mice; assay: Unilateral ureteral obstruction mouse model (UUO model) of renal fibrosis; format: in vivo, C57BL/6 mice; settings: 5 mg·kg^−1·d^−1 gavage, 7 days
Source text: Fifteen male C57BL/6 mice were adaptively fed for one week and randomly divided into two groups: a Sham group (a sham-operation group) including 5 mice and a surgical modeling group including 10 mice. Surgical method: the abdominal cavities of the mice in the sham-operation group were opened under anesthesia to free the left ureter without ligation, and then their abdomens were closed and sutured; the left ureters of the mice in the modeling group were ligated under anesthesia. The mice in the modeling group were further randomly divided into two groups: a UUO group (a model group) and a treatment group of the potassium salt crystal form B of WYQ (5 mg/kg), 5 mice in each group.
The first gavage administration was started 2 hours after the operation.
(2) treatment group of the potassium salt crystal form B of WYQ: the potassium salt crystal form B of WYQ was diluted into a 1 mg/ml solution with normal saline and administered by gavage at the dose of 5 mg·kg^−1·d^−1; and
administered once a day for consecutive 7 days.
After 7 days of drug administration, all the mice were sacrificed. The abdominal cavity was opened and the left and right kidney tissues were peeled off, caring to maintain the integrity of the kidneys. The kidneys were taken out and quickly transferred to pre-cooled PBS, and the kidneys were cut for different assays. The kidney was divided into four parts with a scalpel, and the dorsal side of the kidney was fixed in 4% paraformaldehyde for making paraffin sections. Morphological changes of kidney tissues were observed by HE staining and Masson staining, and changes of expression of fibrosis marker proteins in kidney tissues were observed by immunohistochemistry.

[2] = test system: IPF rats; assay: Bleomycin-induced idiopathic pulmonary fibrosis (IPF) rats; format: in vivo, SD rats; settings: 23 days; for Fibrosis area / Fibrosis score (Ashcroft) / Percentage of score (%) (≤3) / Percentage of score (%) (≥4): left lung
Procedure: The animals were purchased, and modeling was started after 3-7 days of acclimatization. The animals were weighed and anesthetized by inhalation with isoflurane. After the animals were confirmed to be anesthetized, the neck was disinfected, and the skin of the neck was cut. The main trachea was exposed by bluntly dissecting the muscle, a small incision was made between the tracheal rings, into which a PE-20 tube was inserted until the left main bronchus, and bleomycin was injected directly (dose: 3 mg/kg, volume: 1.0 ml/kg). The trachea and skin were sutured. After the surgery, the animals were kept warm at 37° C. under an electric blanket until the animals were fully awake and confirmed to be able to feed and drink freely before returning the animals to their normal feeding cages.
50 mg/kg Nintedanib group (BIBF-50 mg/kg): BIBF was prepared into a solution of 10 mg/ml with 0.5% sodium carboxymethyl cellulose and administered by gavage at a dose of 50 mg/kg^−1·d^−1;
Each group of rats was administered by gavage on the day of modeling, once a day for 23 days in total.
After 23 days of continuous administration, all animals in each group were euthanized by intraperitoneal injection of pentobarbital sodium anesthetic (100 mg/kg) in accordance with the KCl standard operating procedure for animal euthanasia. Whole-body perfusion was performed by low-temperature PBS, and then fixation was performed by whole-body formalin perfusion. The left lung was taken and perfused with an equal amount of formalin fluid for weighing and subsequent lung pathology-related tests.
Left lung gross pathological examination: after perfusion with an equal amount of formalin, the wet weight of the left lung after the perfusion was weighed and recorded with a microbalance; the volume of the left lung after perfusion was measured and recorded using a toe volume measuring instrument.
The whole lung of the left lung was dehydrated according to the KCl pathology standard SOPs, and paraffin blocks were prepared. The whole lung of the left lung was paraffin-sectioned at a thickness of 3-4 μm. HE staining and Masson Trichrome staining were performed according to the KCl pathology standard staining SOPs, and the slice panoramic scanning was carried out by a Hamamatsu NanoZoomer Digital Pathology (S210) slice scanner. The lung lesion area was calculated by Masson Trichrome staining of the sections, and the left lung fibrosis area (%) was the percentage of fibrosis area in the left lung area; 10 randomly selected fields of view of 1 mm^2 in the lesion area were semi-quantitatively scored by the pathologist under double-blind conditions according to the Ashcroft scoring system (as shown in Table 8 and FIG. 40).

[3] = Dynamic vapor sorption (DVS) hygroscopicity test; format: physicochemical
Procedure: Dynamic vapor adsorption (DVS) experiments were performed at 25° C. on a DVS Intrinsic instrument from SMS (Surface Measurement Systems) to test hygroscopicity of the potassium salt anhydrous crystal form B prepared in Embodiment 1. The test sample was first dried at 0% relative humidity (RH) to remove the adsorbed solvent or water, and then the test was started with a target RH of 0-95%.

[4] = test system: PAH rats; assay: Penile erectile function observation in PAH rats; format: in vivo, SD rats
Procedure: After gavage treatment, penile erection in the animals was observed, wherein the time of penile erection phenomenon after gavage was recorded in each group.

[5] = 10 mg/kg, listed as CPD-1, 10 mg/kg
[6] = 10 mg/kg, listed as potassium salt crystal form B of WYQ

SMILES: CCCCOC(=O)[N-]S(=O)(=O)c1cccc(-c2nc3c(CCC)nn(C)c3c(=O)[nH]2)c1.[K+] [potassium salt crystal form B]
- FN1 protein expression level in kidney tissue (immunohistochemistry) [1]: significantly reduced
- fibrosis area in the renal fibrosis lesions vs UUO model group [1]: significantly decrease
- proliferation of renal interstitial collagen fibers [1]: reduced
- inflammatory cell infiltration in the kidney ([1]; HE staining): significantly reduced
- Left lung volume ([2]; 2.5 mg/kg gavage once a day): 1779.9 ± 105.76 mm^3
- Left lung weight ([2]; 2.5 mg/kg gavage once a day): 1.59 ± 0.10 g
- alveolar tissue structure in left lung pulmonary fibrosis lesions (HE staining) ([2]; 2.5 mg/kg): some of the alveolar structures in the fibrotic lesions were damaged
- alveolar tissue structure in left lung pulmonary fibrosis lesions (Masson Trichrom staining) ([2]; 2.5 mg/kg): some of the alveolar structures in the fibrotic lesions were preserved
- Left lung volume ([2]; 10 mg/kg gavage once a day): 1604.5 ± 153.72 mm^3
- Left lung weight ([2]; 10 mg/kg gavage once a day): 1.47 ± 0.16 g
- alveolar tissue structure in left lung pulmonary fibrosis lesions (HE staining) ([2]; 10 mg/kg): the alveolar structures in the fibrotic lesions were preserved
- alveolar tissue structure in left lung pulmonary fibrosis lesions (Masson Trichrom staining) ([2]; 10 mg/kg): most of the alveolar structures in the fibrotic lesions were preserved
- smooth muscle proliferation and inflammatory cell infiltration in bronchioles and pulmonary arterioles of left lung fibrosis lesions vs model group ([2]; 10 mg/kg, HE staining): better effects
- left lung pulmonary fibrosis lesions and lesion range vs the model group ([2]; different doses, H&E and Masson Trichrom staining): no significant difference
- Fibrosis area ([2]; 2.5 mg/kg): 51.99 ± 3.21%
- Fibrosis score (Ashcroft) ([2]; 2.5 mg/kg): 3.21 ± 0.30
- Percentage of score (%) (≤3) ([2]; 2.5 mg/kg): 53.75 ± 9.81%
- Percentage of score (%) (≥4) ([2]; 2.5 mg/kg): 46.25 ± 9.81%
- Fibrosis area ([2]; 10 mg/kg): 53.42 ± 4.44%
- Percentage of score (%) (≤3) ([2]; 10 mg/kg): 71.25 ± 10.08%
- Fibrosis score (Ashcroft) [2, 5]: 2.69 ± 0.31
- Percentage of score (%) (≥4) [2, 5]: 28.75 ± 10.08%
- Fibrosis score (Ashcroft) [2, 6]: significantly inhibit
- Percentage of score (%) (≥4) [2, 6]: significantly reduced
- crystal form before and after the DVS test (XRPD) ([3]; DVS 0-95% RH, 25° C.): did not change
- change in mass (water adsorption amount) ([3]; DVS, 25° C./80% RH): 0.6%
- hygroscopicity ([3]; DVS, 25° C./80% RH): slight hygroscopicity
- rats showing penile erection ([4]; high-dose 20 mg·kg^−1d^−1, over 40 min after gavage): 80%
- rats showing penile erection ([4]; low-dose 5 mg·kg^−1d^−1, over 1 h after gavage): 50%
- rats showing penile erection ([4]; medium-dose 10 mg·kg^−1d^−1, over 1 h after gavage): 80%
- rats showing penile erection ([4]; mini-dose 2 mg·kg^−1d^−1, over 1 h after gavage): 30%
